In brackets after ≈: the same amount, converted by molar mass. Read-outs that look alike come from different tables or passages of the source.
Experiments:
Type in all cases: cell-based
[1] = system: S. aureus RN4220; assay: Minimal inhibitory concentration, S. aureus RN4220; settings: 16 hour minimal inhibitory concentration at 37° C., read-out: MIC (μM) S. aureus RN4220
Outline: (§1)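 MICs (µM) correspond to the lowest concentration stopping bacterial growth, judged by visible-light absorbance at 600 nm following a 16 h static incubation at 37 °C. Compounds were titrated twofold into doubly 1:100-diluted saturated cultures.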

[2] = system: S. aureus MW2; assay: Minimal inhibitory concentration, S. aureus MW2; settings: read-out: MIC (μM) S. aureus MW2 (MRSA)
Outline: as §1

[3] = system: E. cloacae 13047; assay: Minimal inhibitory concentration, E. cloacae 13047; settings: 16 hour minimal inhibitory concentration at 37° C., read-out: MIC (μM) E. cloacae 13047
Outline: as §1

[4] = system: A. baumannii 19606; assay: Minimal inhibitory concentration, A. baumannii 19606; settings: 16 hour minimal inhibitory concentration at 37° C., read-out: MIC (μM) A. baumannii 19606
Outline: as §1

[5] = system: K. pneumoniae 700721; assay: Minimal inhibitory concentration, K. pneumoniae 700721; settings: 16 hour minimal inhibitory concentration at 37° C., read-out: MIC (μM) K. pneumoniae 700721
Outline: as §1

[6] = system: E. coli MC4100; assay: Minimal inhibitory concentration, E. coli MC4100; settings: 16 hour minimal inhibitory concentration at 37° C., read-out: MIC (μM) E. coli MC4100 ara+
Outline: as §1

[7] = system: E. coli 25922; assay: Minimal inhibitory concentration, E. coli 25922; settings: 16 hour minimal inhibitory concentration at 37° C., read-out: MIC (μM) E. coli 25922
Outline: as §1

[8] = Staphylococcus aureus, RN4220, 16 h
[9] = Staphylococcus aureus, MRSA, 16 h, 16 hour minimal inhibitory concentration at 37° C.
[10] = Acinetobacter baumannii, 19606, 16 h

In the case of CO[C@@H]1[C@@H](O)[C@@H](OC(=O)NC2CCCC2)[C@H](Oc2ccc3c(O)c(NC(=O)c4ccc(O)c(CC=C(C)C)c4)c(=O)oc3c2C)OC1(C)C [Compound 107], the MIC [1] is reported as 73 µM (≈ 49.7 µg/mL), the MIC ([2]; 16 hour minimal inhibitory concentration at 37° C.) is reported as 73 µM (≈ 49.7 µg/mL) and the MIC [3] is reported as >100 µM. For the same molecule, the MIC [4] was 9 µM (≈ 6.13 µg/mL), the MIC [5] was >100 µM and the MIC [6] was >200 µM. For the same molecule, the MIC [7] was >200 µM.

With CO[C@@H]1[C@@H](OC(N)=O)[C@@H](O)[C@H](Oc2ccc3c(O)c(NC(=O)c4cc(C)oc4C)c(=O)oc3c2C)OC1(C)C [Compound 200] the MIC [1, 8] was 91 µM (≈ 49.7 µg/mL), the MIC [2, 9] was 91 µM (≈ 49.7 µg/mL) and the MIC ([3]; Enterobacter cloacae, 13047) was > 100 µM. For the same molecule, the MIC [4, 10] was > 50 µM, the MIC ([5]; Klebsiella pneumoniae, 700721) was > 100 µM and the MIC ([6]; Escherichia coli, MC4100, 16 h) was > 200 µM. The MIC ([7]; Escherichia coli, 25922, 16 h) was > 200 µM.

With CO[C@@H]1[C@@H](OC(N)=O)[C@@H](O)[C@H](Oc2ccc3c(O)c(NC(=O)c4ccc(C(=O)c5ccccc5)cc4)c(=O)oc3c2C)OC1(C)C [Compound 233] the MIC [1, 8] was 40 µM (≈ 25.3 µg/mL), the MIC [2, 9] was 40 µM (≈ 25.3 µg/mL) and the MIC ([3]; Enterobacter cloacae, 13047) was > 100 µM. For the same molecule, the MIC [4, 10] was > 50 µM, the MIC ([5]; Klebsiella pneumoniae, 700721) was > 100 µM and the MIC ([6]; Escherichia coli, MC4100, 16 h) was > 200 µM. The MIC ([7]; Escherichia coli, 25922, 16 h) was > 200 µM.

With CO[C@@H]1[C@@H](OC(N)=O)[C@@H](O)[C@H](Oc2ccc3c(O)c(NC(=O)c4ccc(I)c(Oc5ccccc5)c4)c(=O)oc3c2C)OC1(C)C [Compound 252] the MIC [1, 8] was 2.3 µM (≈ 1.72 µg/mL), the MIC [2, 9] was 2 µM (≈ 1.49 µg/mL) and the MIC ([3]; Enterobacter cloacae, 13047) was > 100 µM. The MIC [4, 10] was > 50 µM, the MIC ([5]; Klebsiella pneumoniae, 700721) was 38 µM (≈ 28.4 µg/mL) and the MIC ([6]; Escherichia coli, MC4100, 16 h) was 17 µM (≈ 12.7 µg/mL). It also gave an MIC ([7]; Escherichia coli, 25922, 16 h) of 33 µM (≈ 24.6 µg/mL).

CO[C@@H]1[C@@H](OC(N)=O)[C@@H](O)[C@H](Oc2ccc3c(O)c(NC(=O)c4cccc(-c5ccc(Cl)c(Cl)c5)c4)c(=O)oc3c2C)OC1(C)C [Compound 222] was tested, and the MIC [1, 8] was 0.46 µM (≈ 0.31 µg/mL), the MIC [2, 9] was 0.23 µM (≈ 0.155 µg/mL) and the MIC ([3]; Enterobacter cloacae, 13047) was > 100 µM. The MIC [4, 10] was 9 µM (≈ 6.06 µg/mL), the MIC ([5]; Klebsiella pneumoniae, 700721) was > 100 µM and the MIC ([6]; Escherichia coli, MC4100, 16 h) was 37 µM (≈ 24.9 µg/mL). The MIC ([7]; Escherichia coli, 25922, 16 h) was 37 µM (≈ 24.9 µg/mL).

CO[C@@H]1[C@@H](OC(N)=O)[C@@H](O)[C@H](Oc2ccc3c(O)c(NC(=O)c4ccc(F)c(CC=C(C)C)c4)c(=O)oc3c2C)OC1(C)C [Compound 101] was tested, and the MIC [1, 8] was 2 µM (≈ 1.23 µg/mL), the MIC ([2]; Staphylococcus aureus, MRSA, 16 h) was 1 µM (≈ 0.615 µg/mL) and the MIC ([3]; Enterobacter cloacae, 13047) was > 100 µM. For the same molecule, the MIC ([4]; Acinetobacter baumannii, 19606) was 41 µM (≈ 25.2 µg/mL), the MIC ([5]; Klebsiella pneumoniae, 700721) was 81 µM (≈ 49.8 µg/mL) and the MIC ([6]; Escherichia coli, MC4100) was 20 µM (≈ 12.3 µg/mL). It also gave an MIC ([7]; Escherichia coli, 25922) of 20 µM (≈ 12.3 µg/mL).

In the case of CO[C@@H]1[C@@H](OC(N)=O)[C@@H](O)[C@H](Oc2ccc3c(O)c(NC(=O)c4ccc(I)c(-c5ccccc5)c4)c(=O)oc3c2C)OC1(C)C [Compound 227], the MIC [1, 8] is reported as 4 µM (≈ 2.92 µg/mL), the MIC [2, 9] is reported as 4 µM (≈ 2.92 µg/mL) and the MIC ([3]; Enterobacter cloacae, 13047) is reported as > 100 µM. For the same molecule, the MIC [4, 10] was > 50 µM, the MIC ([5]; Klebsiella pneumoniae, 700721) was 34 µM (≈ 24.8 µg/mL) and the MIC ([6]; Escherichia coli, MC4100, 16 h) was 9 µM (≈ 6.57 µg/mL). The MIC ([7]; Escherichia coli, 25922, 16 h) was 34 µM (≈ 24.8 µg/mL).

In the case of CO[C@@H]1[C@@H](OC(N)=O)[C@@H](O)[C@H](Oc2ccc3c(OCC4CO4)c(NC(=O)c4ccc(O)c(CC=C(C)C)c4)c(=O)oc3c2C)OC1(C)C (stereo partly shown) [Compound 217], the MIC [1, 8] is reported as 19 µM (≈ 12.7 µg/mL), the MIC [2, 9] is reported as 9 µM (≈ 6.02 µg/mL) and the MIC ([3]; Enterobacter cloacae, 13047) is reported as > 100 µM. The MIC [4, 10] was > 50 µM, the MIC ([5]; Klebsiella pneumoniae, 700721) was > 100 µM and the MIC ([6]; Escherichia coli, MC4100, 16 h) was > 200 µM. The MIC ([7]; Escherichia coli, 25922, 16 h) was > 200 µM.

With CO[C@@H]1[C@@H](OC(N)=O)[C@@H](O)[C@H](Oc2ccc3c(O)c(NC(=O)c4cccc(Oc5cccc(Cl)c5)c4)c(=O)oc3c2C)OC1(C)C [Compound 245] the MIC [1, 8] was 10 µM (≈ 6.55 µg/mL), the MIC [2, 9] was 19 µM (≈ 12.4 µg/mL) and the MIC ([3]; Enterobacter cloacae, 13047) was > 100 µM. The MIC [4, 10] was > 50 µM, the MIC ([5]; Klebsiella pneumoniae, 700721) was > 100 µM and the MIC ([6]; Escherichia coli, MC4100, 16 h) was 38 µM (≈ 24.9 µg/mL). It also gave an MIC ([7]; Escherichia coli, 25922, 16 h) of 76 µM (≈ 49.8 µg/mL).

With C=CCOc1c(NC(=O)c2ccc(O)c(CC=C(C)C)c2)c(=O)oc2c(C)c(O[C@@H]3OC(C)(C)[C@H](OC)[C@@H](OC(N)=O)[C@H]3O)ccc12 [Compound 212] the MIC [1, 8] was > 100 µM, the MIC [2, 9] was > 100 µM and the MIC ([3]; Enterobacter cloacae, 13047) was > 100 µM. For the same molecule, the MIC [4, 10] was > 50 µM, the MIC ([5]; Klebsiella pneumoniae, 700721) was > 100 µM and the MIC ([6]; Escherichia coli, MC4100, 16 h) was > 200 µM. For the same molecule, the MIC ([7]; Escherichia coli, 25922, 16 h) was > 200 µM.

— patent US11713335B2, “Aminocoumarin compounds and methods of their use” (President and Fellows of Harvard College, priority 2018, dated 2023)
